# pIC50: −log10 of the molar value. Where two headings read alike, the source gives them in different places. No end group written: not given here.
# Columns and labels:
# IB4 lectin [1] = molecular target: T1, IB4 lectin (Griffonia simplicifolia, UniProt Q8W1R6); experiment: Elisa: inhibition of IB4 lectin binding to Galα(1,3)Gal-BSA; details: for Inhibition of IB4 lectin binding to Galα(1,3)Gal-BSA (in words) / Inhibition of binding of IB4 to Galα(1,3)Gal-BSA: Elisa; for Inhibition of IB4 lectin binding to Galα(1,3)Gal-BSA (in words): varying concentrations of inhibitor; for Inhibition of binding of IB4 to Galα(1,3)Gal-BSA: peptide concentration 5 mM (FIG. 8a)
# T1 sequence (Q8W1R6 1-247): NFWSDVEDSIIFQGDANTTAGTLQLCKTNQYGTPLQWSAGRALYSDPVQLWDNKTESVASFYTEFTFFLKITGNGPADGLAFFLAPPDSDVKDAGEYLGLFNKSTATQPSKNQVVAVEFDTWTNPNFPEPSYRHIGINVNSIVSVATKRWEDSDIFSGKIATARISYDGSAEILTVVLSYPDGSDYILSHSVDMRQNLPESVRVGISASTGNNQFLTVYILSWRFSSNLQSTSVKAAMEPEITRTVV
# Description: (§1) 50 μl of either purified anti-Galα(1,3)Ga IgG or biotinylated IB4 lectin was added to the wells, incubated for 45 minutes at 22° C., washed with PBS-0.05% Tween 20, and 50 μl of the relevant IIRP conjugate added and incubated for a further 45 minutes before washing and the addition of 50 μl of substrate (2,2′ Azino-di-B-ethylbenzthiozoline (Zymed, San Francisco, Calif.)) and reading the OD405.
# (§2) An Elisa was established to calculate the relative “affinity” of the Gal pep 1 (SEQ ID No. 1) for the IB4 lectin and for human anti-Galα(1,3)Gal antibodies, and to compare these with the affinities for α-galactosyl sugars.
# (§3) Peptides or carbohydrates were examined cytofluorographically for their ability to inhibit antibody/lectin binding to the cell surface using a FACSCAN flow cytometer (Becton Dickinson, USA)[20]: 25 μl of inhibitor was mixed with 25 μl of antibody of lectin and incubated at 22° C. for 3 hours (peptides) or at 4° C. for 16 hours (carbohydrates)[14], prior to addition of appropriate targets. An Elisa assay was used to calculate the relative affinities of the sugars or the peptides for both IB4 lectin and antibodies, and were defined as the molar concentration of inhibitor giving 50% inhibition of the maximal binding of lectin or antibody.
# IB4 lectin [2] = molecular target: T1, IB4 lectin; experiment: biochemical
# PIEC cells = experiment: Inhibition of cytotoxicity of NHS and complement on PIEC; assay type: cell-based, pig; details: peptide 10 mM to 2.5 mM, NHS 1/25
# Text: FIG. 4. Inhibition of cytotoxicity due to natural antibody and complement by Gal pep 1 (SEQ ID No. 1). Varying concentrations of Gal pep 1 (∘) or CD48 pep 1 (♦) (shown in mM on horizontal axis) were examined in a cytotoxicity assay using NHS (final dilution of 1/25) and PEEC cells as targets.
# (§4) The binding of lectin or antibody to the surface of pig cells was detected by hemagglutination, cytotoxicity or flow cytometry using the FACSCAN flow cytometer (Becton Dickinson, Mountain View, Calif.).
# Human cytotoxic antibodies directly damage pig endothelial cells in a pig-to-human xenograft, therefore the ability of Gal pep 1 (SEQ ID No. 1) to inhibit the cytotoxicity of human antibodies on PIEC in vitro was tested; Gal pep 1 inhibited the cytotoxicity of NHS (10 mM to 2.5 mM), whereas CD48 pep 1 (SEQ ID No. 11) had no effect (FIG. 4).
# [3] = system: human anti-Galα(1,3)Gal IgG antibodies; experiment: Elisa: inhibition of anti-Galα(1,3)Gal IgG binding to Galα(1,3)Gal-BSA; details: for Inhibition of anti-Galα(1,3)Gal IgG binding to Galα(1,3)Gal-BSA (in words) / Inhibition of binding of anti-Galα(1,3)Gal IgG to Galα(1,3)Gal-BSA: Elisa; for Inhibition of anti-Galα(1,3)Gal IgG binding to Galα(1,3)Gal-BSA (in words): varying concentrations of inhibitor; for Inhibition of binding of anti-Galα(1,3)Gal IgG to Galα(1,3)Gal-BSA: peptides at 5 mM (FIG. 8b)
# Description: as §1, §2, §3
# IB4 lectin [4] = molecular target: T1, IB4 lectin; experiment: Cytofluorographic inhibition of IB4 lectin binding to PIEC cells; assay type: cell-based
# Description: FIGS. 3(A-C). […] (A); Staining of PIEC cells with IB4 lectin (1 μg/ml). (B) Staining of PIEC cells with NHS (final dilution of 1/50) and anti-human Ig. (C) Staining of PBL with IB4 lectin (μg/ml). Peptides were used at 5 mM (A and C) or at 20 mM (B). In each panel profile “a” represents binding in the presence of Gal pep 1 (SEQ ID No. 1), and profile “b” the binding in the presence of CD48 pep 1 (SEQ ID No. 11).
# FIGS. 6(A-B). […] Varying concentrations of peptides (shown in mM on horizontal axis) were explained for ability to inhibit the binding of IB4 lectin (1 μg/ml) to tie PIEC cells using cytofluorographic analysis. (a) Gal pep 1 (SEQ ID No. 1) (□), Muc pep 1 (SEQ ID No. 15) (∘).
# FIG. 7. […] All peptides used at 5 mM, using cytofluorograhic analysis. Inhibition calculated relative to no peptide control.
# as §4, §3
# [5] = system: MCF-7 (MUC1^+HLA-A*0201^+) cells; experiment: CTL assay, HLA-A*0201/K^b spleen CTLs on human breast cancer cells; assay type: ex vivo, mouse; details: HLA-A2 mice
# Description: FIG. 14(A) Direct CTL assay using p815 MUC1+ (Tm2) or P815 targets. DBA/2 mice were immunised with MFP, or Gal-KLH. FIG. 14(B) CTL assay using HLA-A*0201/K^b spleen CTLs from mice immunised with either mimic or mutated mimic peptides on ^51Cr MCF-7 (MUC1^+HLA-A*0201^+) cells. ^51CrBT20 (MUC1^+HLA-A*0201^−) or MF272 (MUC1^−IILA-A*0201^+) cells were also used as targets and as well as ^51CrMCF-7 cells incubated with cold K562 cells at a 30:1 hot:cold ratio (K562, a myelogenous leukemia cell line). Vertical axis=% lysis; horizontal axis=E:T ratio.
# It was next investigated whether the […] peptide (SEQ ID No. 1) be presented by HLA-A2 could immunise for HLA-H2 presented MUC1 peptides. […] Thus the […] peptide (SEQ ID No. 1) gives highly specific immune responses which appear to be directed to the human MUC1 peptide presented by MUC class I molecules.
# [6] = Table 1, anti-Galα(1,3)Gal IgG 87 μg/ml, concentration giving 50% inhibition of binding, read-out: I50 anti-Galα(1,3)Gal IgG
# [7] = varying peptide concentrations (FIG. 6b)
# [8] = Table 3, anti-Galα(1,3)Gal antibody (IgG) 87 μgs/ml, read-out: I50 Anti-Galα(1,3)Gal
compound,measurement,setting,value
DAHWESWL [Gal pep 1],pIC50,IB4 lectin [1],3.52
same,pIC50,IB4 lectin [2],2.30
same,Inhibition of cytotoxicity of NHS on PIEC,PIEC cells,inhibited
"OCC1OC(OCC2OC(O)C(O)C(O)C2O)C(O)C(O)C1O (stereo not drawn) [Melibiose, Galα(1,6)Glc]","Inhibition of IB4 lectin binding to Galα(1,3)Gal-BSA (in words)",IB4 lectin [1],inhibited
same,pIC50,IB4 lectin [1]; read-out: I50 IB4,3.52
same,"Inhibition of anti-Galα(1,3)Gal IgG binding to Galα(1,3)Gal-BSA (in words)",[3],inhibited
same,pIC50,[3]; [6],3.52 to 3.90
PAPGSTAPPAHGVTSA [Muc pep 5],Inhibition of IB4 lectin binding to PIEC cells,IB4 lectin [4]; [7],partial inhibition
same,"Inhibition of binding of IB4 to Galα(1,3)Gal-BSA",IB4 lectin [1],complete inhibition
"OCC1OC(OC2C(O)C(O)OC(CO)C2O)C(O)C(O)C1O (stereo not drawn) [Galα(1,3)Gal]","Inhibition of IB4 lectin binding to Galα(1,3)Gal-BSA (in words)",IB4 lectin [1],inhibited
same,pIC50,"IB4 lectin [1]; Table 1, biotinylated IB4 lectin […], concentration giving 50% inhibition of binding, read-out: I50 IB4",> 4.52
same,pIC50,IB4 lectin [1]; read-out: I50 IB4,> 4.52
same,"Inhibition of anti-Galα(1,3)Gal IgG binding to Galα(1,3)Gal-BSA (in words)",[3],inhibited
same,pIC50,[3]; [6],4.52
same,pIC50,[3]; [8],4.52
"TECKHKKGKVVSGKVLSY [CD4 pep 1, control peptide, murine CD4]","Inhibition of binding of IB4 to Galα(1,3)Gal-BSA",IB4 lectin [1],did not inhibit
same,"Inhibition of binding of anti-Galα(1,3)Gal IgG to Galα(1,3)Gal-BSA",[3],had no effect
DLHWASWV,CTL lysis of human breast cancer cell lines,[5],specifically lyse human breast cancer cell lines
"CHSTPSFTSSITTTETTS [Muc pep 10, human Muc3 VNTR]",Inhibition of IB4 lectin binding to PIEC cells,IB4 lectin [4]; peptides at 5 mM (FIG. 7),inhibited
TSSASTGHATPLPVTP [Muc pep 11],Inhibition of IB4 lectin binding to PIEC cells,IB4 lectin [4]; peptides at 5 mM (FIG. 7),inhibited
same,"Inhibition of binding of IB4 to Galα(1,3)Gal-BSA",IB4 lectin [1],complete inhibition
same,"Inhibition of binding of anti-Galα(1,3)Gal IgG to Galα(1,3)Gal-BSA",[3],inhibited
same,pIC50,[3]; [8],2.60
APDTRPAPGSTAPPAH [Muc pep 4],Inhibition of IB4 lectin binding to PIEC cells,IB4 lectin [4]; [7],partial inhibition
same,"Inhibition of binding of IB4 to Galα(1,3)Gal-BSA",IB4 lectin [1],complete inhibition
same,"Inhibition of binding of anti-Galα(1,3)Gal IgG to Galα(1,3)Gal-BSA",[3],partial inhibition
same,pIC50,[3]; [8],2.30
YTFDQKIVEWDSRKSKC [CD48 pep 1],pIC50,IB4 lectin [1],< 1.70
same,pIC50,"IB4 lectin [1]; read-out: I50 IB4, Table 3, biotinylated IB4 lectin 6.25 μgs/ml",< 1.70
same,Inhibition of cytotoxicity of NHS on PIEC,PIEC cells,had no effect
WEADLHWS [Scram pep 1],pIC50,[3]; [8],< 1.70
"RSSVPSSTEKNAVSMTSSVL [Muc pep 7, human Muc1 NH2 to VNTR]",Inhibition of IB4 lectin binding to PIEC cells,IB4 lectin [4]; peptides at 5 mM (FIG. 7),did not
same,"Inhibition of binding of IB4 to Galα(1,3)Gal-BSA",IB4 lectin [1],no inhibition

# Source: patent US6344203B1, “Mimicking peptides in cancer therapy” (The Austin Research Institute, priority 1995, dated 2002)
